Measurements taken from patent publication US20250127741A1, “MEDICINAL COMPOSITION COMPRISING RIBOSE AND AMINO ACIDS” (MEE-HU PHARMA GMBH, priority 2021, published 2025).

Test system: resistant strain of E. Coli (O157.H7)
Assay: In vivo animal study #2: granuloma pouch model in Wistar rats, bacterial counts in pouch fluid
Conditions: male Wistar rats; given alone every 12 h, six doses (co-trimoxazole 30 mg/kg i.p.; inventive composition 500 mg/kg p.o.); all time intervals
Protocol: Male Wistar rats, weighing 200-250 g, were infected with a resistant strain of E. Coli (O157.H7) using the granuloma pouch model. Specifically, pouches were produced by injecting 30 ml of sterile filtered air followed by injection of 0.5 ml of 0.5% croton oil in sesame seed oil deep into the loose connective dorsal tissue. Two days later, approximately 10 ml of air were withdrawn, and after 2 more days, 2 ml of 1% peptone and 0.35% agar in saline solution were injected in the pouch. On day 10, rats were infected with 10^6 CFU of E. coli suspended in 1.5 ml of THB containing 2.5% gastric mucin and 0.35% agar.
The rats were divided in groups of five rats, and the following drugs, either alone or concurrently administered, were administered every 12 h for three consecutive days, making a total of six doses, starting 24 h after infection: co-trimoxazole (Septrin, GlaxoSmithKline) 30 mg/kg (i.p) and the inventive composition 500 mg/kg (p.o) (the 500 mg referring to the weight of the lyophilisate of Table 1 contained in the amount of mixed solution administered). […]
Samples (0.5 mL) of pouch fluid were withdrawn from each animal just before treatment (0 time), 3 h after the first dose, just before the last dose, 3 and 24 h after the last dose. […] The results represent the average values obtained from all the animals in the same group at the same intervals and expressed as log 10 CFU/ml. […]

co-trimoxazole [cotrimoxazole]
bacterial counts in pouch fluid, difference to control group: no significant differences
